# Data: US12336981B2, “Compounds and compositions for the inhibition of NAMPT” (Valo Health, Inc., priority 2010, dated 2025)
# Where two headings read alike, the source gives them in different places.
# What was measured:
# A2780 cells = experiment: In-vitro cell proliferation assay (SRB), A2780 cells; assay type: cell-based; conditions: Homo sapiens, A2780, 72 h, A2780 cells, 72 hours, read-out: A2780 IC50
# Outline: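 Read-out is SRB absorbance at 570 nm on TCA-fixed cells after 72 hours of compound treatment at 37° C. in 5% CO2. Background from a media-only plate is subtracted, and % inhibition is interpolated between two tested concentrations.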
# NAMPT = target: T1, NAMPT (Homo sapiens, UniProt P43490); experiment: Biochemical inhibition assay: NAMPT enzymatic reaction, NMN quantified by mass spectrometry; conditions: read-out: Biochem IC50
# T1 construct: His tag; host or cells: E. coli
# T1 sequence (P43490 whole entry): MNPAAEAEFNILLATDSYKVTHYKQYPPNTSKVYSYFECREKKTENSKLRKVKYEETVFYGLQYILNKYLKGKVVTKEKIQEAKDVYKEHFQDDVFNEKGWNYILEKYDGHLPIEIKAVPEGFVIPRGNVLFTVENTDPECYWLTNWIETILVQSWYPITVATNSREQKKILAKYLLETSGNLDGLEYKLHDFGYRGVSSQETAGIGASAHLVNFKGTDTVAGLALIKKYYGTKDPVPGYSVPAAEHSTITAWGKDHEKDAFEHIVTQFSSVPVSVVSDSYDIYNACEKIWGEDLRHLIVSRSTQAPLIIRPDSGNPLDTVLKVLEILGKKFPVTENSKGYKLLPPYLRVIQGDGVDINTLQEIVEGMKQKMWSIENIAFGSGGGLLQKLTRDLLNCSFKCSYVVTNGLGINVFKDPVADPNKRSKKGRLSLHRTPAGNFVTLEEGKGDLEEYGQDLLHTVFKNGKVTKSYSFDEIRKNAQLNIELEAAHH
# Outline: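 Inhibition of E. coli-expressed His-tagged human NAMPT, measured as NMN formation by mass spectrometry after a 30 min room-temperature reaction containing 1 μM NAM, 100 μM PRPP and 2.5 mM ATP.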
SMILES,IC50 (A2780 cells; SRB assay),IC50 (NAMPT; NAMPT enzymatic reaction),IC50 (A2780 cells; SRB),IC50 (NAMPT; NAMPT enzymatic assay)
"Cc1ccc(S(=O)(=O)c2ccc(CNC(=O)c3cc4ccncc4s3)cc2)s1 [N-{[4-(5-methylthiophene-2-sulfonyl)phenyl]methyl}thieno[2,3-c]pyridine-2-carboxamide]",7.7 nM,5 nM,,
"O=C(NCc1ccc(S(=O)(=O)Nc2ccccc2CO)cc1)c1cc2cnccc2[nH]1 [N-[(4-{[2-(hydroxymethyl)phenyl]sulfamoyl}phenyl)methyl]-1H-pyrrolo[3,2-c]pyridine-2-carboxamide]",6 nM,30 nM,,
O=C(NCc1ccc(S(=O)(=O)c2cccc(N3CCOCC3)c2)cc1)c1cc2ccncc2o1,,,5.6 nM,5 nM
"O=C(NCc1ccc(S(=O)(=O)c2ccc(Cl)c(F)c2)cc1)c1cc2ccncc2s1 [N-({4-[(4-chloro-3-fluorobenzene)sulfonyl]phenyl}methyl)thieno[2,3-c]pyridine-2-carboxamide]",7.1 nM,3 nM,,
O=C(NCc1ccc(S(=O)(=O)c2cccc(-c3ccccc3)c2)cc1)c1ccc2nccn2c1,,12.2 nM,6.8 nM,
"O=C(NCc1ccc(S(=O)(=O)c2ccc3c(c2)OCO3)cc1)c1ccc2nccn2c1 [N-{[4-(2H-1,3-benzodioxole-5-sulfonyl)phenyl]methyl}imidazo[1,2-a]pyridine-6-carboxamide]",,,5.33 nM,10.7 nM
"O=C(NCc1ccc(S(=O)(=O)c2ccc3c(c2)OCCO3)cc1)c1cnc2nccn2c1 [N-{[4-(2,3-dihydro-1,4-benzodioxine-6-sulfonyl)phenyl]methyl}imidazo[1,2-a]pyrimidine-6-carboxamide]",,,0.5 nM,0.2 nM
O=C(NCc1ccc(S(=O)(=O)c2ccc(C(F)(F)F)c(F)c2)cc1)c1cc2ccncc2o1,,,13.7 nM,9.2 nM
COc1ccc(F)cc1S(=O)(=O)c1ccc(CNC(=O)c2cc3ccncc3s2)cc1,,2 nM,0.8 nM,
"CS(=O)(=O)Nc1ccccc1S(=O)(=O)c1ccc(CNC(=O)c2cc3cnccc3[nH]2)cc1 [N-({4-[(2-methanesulfonamidobenzene)sulfonyl]phenyl}methyl)-1H-pyrrolo[3,2-c]pyridine-2-carboxamide]",> 1000 nM,284 nM,,
Cc1cccc(S(=O)(=O)c2ccc(CNC(=O)c3cc4ccncc4s3)cc2)c1F,,10.7 nM,3.3 nM,
O=C(NCc1ccc(S(=O)(=O)c2ccc(CO)cc2)cc1)c1ccc2nccn2c1,,,12.9 nM,14.2 nM
"COc1cccc(S(=O)(=O)c2ccc(CNC(=O)c3cnc4nccn4c3)cc2)n1 [N-{[4-(6-methoxypyridine-2-sulfonyl)phenyl]methyl}imidazo[1,2-a]pyrimidine-6-carboxamide]",,,5.9 nM,2.2 nM
"Cc1cn(C)c(S(=O)(=O)c2ccc(CNC(=O)c3cc4ccncc4o3)cc2)n1 [N-{[4-(1,4-dimethyl-1H-imidazole-2-sulfonyl)phenyl]methyl}furo[2,3-c]pyridine-2-carboxamide]",,,100 to 1000 nM,60.7 nM
COc1ccc(S(=O)(=O)c2ccc(CNC(=O)c3cc4cnccc4[nH]3)cc2)c(C(F)(F)F)c1,,,13 nM,80.4 nM
"O=C(NCc1ccc(S(=O)(=O)c2ccc3c(c2)OCO3)cc1)c1cnc2[nH]ncc2c1 [N-{[4-(2H-1,3-benzodioxole-5-sulfonyl)phenyl]methyl}-1H-pyrazolo[3,4-b]pyridine-5-carboxamide]",,,7.4 nM,48.2 nM
O=C(NCc1ccc(S(=O)(=O)c2ccc(C(F)(F)F)cc2)cc1)c1cc2ccncc2o1,,,19.8 nM,8.7 nM
O=C(NCc1ccc(S(=O)(=O)c2cccc(-c3ccccc3)c2)cc1)c1cc2cnccc2[nH]1,,2.3 nM,11.9 nM,
"O=C(NCC1CCN(S(=O)(=O)c2ccccc2)CC1)c1cc2cnccc2[nH]1 [N-{[1-(benzenesulfonyl)piperidin-4-yl]methyl}-1H-pyrrolo[3,2-c]pyridine-2-carboxamide]",9 nM,15 nM,,
